Literature values as cited in patent US8273362B2, “Ophthalmic emulsions containing prostaglandins” (Novagali Pharma S.A., priority 2004, dated 2012).

Key:
[1] = at 0.3% w/v
[2] = ophthalmic preparations

| Compound | Solubility in water | also measured |
| --- | --- | --- |
| CCCCC[C@H](O)/C=C/[C@H]1[C@H](O)CC(=O)[C@H]1C/C=C\CCCC(=O)O [8-isoprostaglandinE2] | almost insoluble in water |  |
| CCNC(=O)CCC/C=C\C[C@@H]1[C@@H](/C=C/[C@@H](O)CCc2ccccc2)[C@H](O)C[C@@H]1O [Bimatoprost, bimatoprost] | almost insoluble in water |  |
| CC(C)OC(=O)CCC/C=C\C[C@@H]1[C@@H](CC[C@@H](O)CCc2ccccc2)[C@H](O)C[C@@H]1O [Latanoprost, latanoprost] | almost insoluble in water |  |
| CC(C)OC(=O)CCC/C=C\C[C@@H]1[C@@H](/C=C/[C@@H](O)COc2cccc(C(F)(F)F)c2)[C@H](O)C[C@@H]1O [Travoprost, travoprost] | almost insoluble in water |  |
| CCCCCCCC/C=C\CCCCCCCCN [oleylamine] |  | Safety for ocular administration [1]: safe |
| CCCCCCCCCCCCCCCCCCN [stearylamine] |  | Safety for ocular administration [1]: safe |
| CC(C)OC(=O)CCC/C=C\C[C@@H]1[C@@H](/C=C/C(F)(F)COc2ccccc2)[C@H](O)C[C@@H]1O [tafluprost] | almost insoluble in water |  |
| CCCCCCCC(=O)CC[C@@H]1[C@@H](C/C=C\CCCC(=O)OC(C)C)[C@@H](O)C[C@H]1O [unoprostone isopropyl] | almost insoluble in water |  |
| benzalkonium chloride [BAK] |  | Toxicity of long term use [2]: important toxicity |
